Structures are written as SMILES.

Chain of Tyrosine-protein phosphatase non-receptor type 22 (Homo sapiens) (Q9Y2R2 whole entry, looked up): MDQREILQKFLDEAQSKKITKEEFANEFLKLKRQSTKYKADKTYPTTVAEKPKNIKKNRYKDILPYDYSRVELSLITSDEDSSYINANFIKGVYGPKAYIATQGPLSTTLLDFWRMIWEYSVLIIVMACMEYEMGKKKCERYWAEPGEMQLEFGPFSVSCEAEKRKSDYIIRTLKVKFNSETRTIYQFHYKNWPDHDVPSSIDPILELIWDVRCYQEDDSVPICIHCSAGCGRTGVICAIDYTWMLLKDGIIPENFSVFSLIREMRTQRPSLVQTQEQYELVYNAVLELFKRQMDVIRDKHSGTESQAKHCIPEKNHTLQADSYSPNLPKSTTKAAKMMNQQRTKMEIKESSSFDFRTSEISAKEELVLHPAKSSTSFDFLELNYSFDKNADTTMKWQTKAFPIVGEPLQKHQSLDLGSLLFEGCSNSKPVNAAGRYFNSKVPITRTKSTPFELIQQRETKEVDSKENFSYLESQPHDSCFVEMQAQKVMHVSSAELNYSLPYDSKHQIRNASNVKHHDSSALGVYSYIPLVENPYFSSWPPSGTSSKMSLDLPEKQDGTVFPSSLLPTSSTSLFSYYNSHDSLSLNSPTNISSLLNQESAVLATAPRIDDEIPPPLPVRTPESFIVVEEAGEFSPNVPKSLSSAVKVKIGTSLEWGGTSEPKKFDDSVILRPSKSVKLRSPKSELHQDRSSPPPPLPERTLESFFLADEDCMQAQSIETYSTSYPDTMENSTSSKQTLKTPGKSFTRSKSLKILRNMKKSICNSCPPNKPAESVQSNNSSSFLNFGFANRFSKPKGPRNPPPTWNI

This test addresses Tyrosine-protein phosphatase non-receptor type 22 (Homo sapiens) (UniProt Q9Y2R2). Nature of the test: inhibition of lymphoid tyrosine phosphatase LYP – biochemical, pCAP fluorogenic substrate, fluorescence, set 3, SAR follow-up (AID 449727). The settings on record: recombinant LYP.
Take `COc1ccc(/C=C2\SC(=S)N(CCC(=O)Nc3ccc(C(=O)O)cc3)C2=O)cc1OC`: the IC50 (in general, the concentration that gives 50% inhibition) is 2.94 µM. The result for `Cc1c(Cl)cccc1NS(=O)(=O)c1ccc2c(c1)C1C=CCC1C(c1ccc(C(=O)O)cc1)N2` (stereo unspecified) reads 47 µM; that for `N#C/C(=C\c1ccc(OCc2ccc(Cl)cc2)cc1)C(=O)Nc1cccc(C(=O)O)c1`, 6.36 µM; that for `CCc1ccc(/C=C2\SC(=S)N(CCCC(=O)Nc3ccc(C(=O)O)cc3)C2=O)cc1`, 76 µM. The result for `O=C(O)CCCN1C(=O)/C(=C/c2ccc(-c3nc4ccccc4s3)o2)SC1=S` reads 3.96 µM; that for `CCOC(=O)C1=C(C)N=c2s/c(=C/c3cc(Cl)c(OCC(=O)O)c(OC)c3)c(=O)n2C1c1ccccc1Cl` (stereo unspecified), 30.6 µM.

Source of the values: PubChem BioAssay AID449727 (Sanford-Burnham Center for Chemical Genomics, 2010).
